Experimental data: publication PMC11091220, “Metabolism-driven in vitro/in vivo disconnect of an oral ERɑ VHL-PROTAC” (Communications Biology, 2024)
Where “and” joins values, the source holds several entries; their conditions need not be identical. Equal values may be shown once.

Legend:
PGR mRNA = assay: PD study in CTC174 PDX model, tumour PGR mRNA by qPCR; format: in vivo, mouse; conditions: 100 mg/kg BID, 4 days, individual animals; listed as AZ'6421
[1] = tested on: CTC174 patient-derived xenograft (PDX) model; assay: Efficacy study in CTC174 PDX model, tumour growth; format: in vivo, mouse
Description: CTC174 (ER/PR positive, HER2-negative patient-derived xenograft (PDX) model) studies were conducted following implantation of a tumour fragment in female NSG mice; established tumours were removed from donor mice and dissected into 3x3x3 mm pieces in RPMI 1640 media. Female NOD scid gamma (NSG) mice were anesthetized using 2% isoflurane, a small incision was made through the skin, 0.5 cm dorsally to the third nipple, and a tumour fragment was inserted between the skin layer and the third mammary fat pad. The skin was closed with surgical glue (VetBond, 3 M).
Mice were randomised into groups of 8-10 once tumour sizes reached approximately 0.2 cm^3. AZ’6421 was dosed orally at 30 mg/kg QD or 100 mg/kg BID using EF3, alongside a vehicle control. AZD9833 was dosed at 10 mg/kg PO, QD. Tumours were measured twice per week and changes in tumour volume and growth inhibition were determined by bilateral Vernier caliper measurement (length x width), where length was taken to be the longest diameter across the tumour and width the corresponding perpendicular. Tumour volume was calculated using the formula (length x width) x √ (length x width) x π/6). Tumour growth inhibition from the start of the study to the final day of tumour measurement was assessed by comparison of the geometric mean change in tumour volume for the control and treated groups. Tumour regression was calculated as the percentage reduction in tumour volume from baseline (pre-treatment) value (where relative tumour volume [RTV] = geometric mean RTV): %regression=(1−RTV)×100% Statistical significance was evaluated using a one-tailed t-test compared to vehicle control at the day of final tumour measures.

[2] = Metabolite identification in mouse hepatocytes; format: in vitro ADME; conditions: in vitro mouse hepatocytes
Description: CD-1 male mouse hepatocytes (BioreclamationIVT, M005052, lot:LRH) were thawed and warmed to 37 °C using Lebovitz’s L-15 medium and Cell yield/cell density and viability were assessed by a Nexcelom cell counter.
Incubations were conducted on a Hamilton robot, 0.25 mL of the hepatocyte suspension (1 million cells/mL) was transferred for each incubation into Nunc 96-deepwell plate. Substrate (2.5 µL of 0.5 mM in acetonitrile) was added (final concentration of 5 µM) and then incubated for 60 minutes at 37 °C. The samples were quenched with an equal volume of acetonitrile, spun at 3500 rpm for 10 minutes and 0.2 mL of the supernatant was transferred into 0.6 mL of water for analysis by UHPLC-UV-HRAMS.

Q: Which results are given for `Cc1ncsc1-c1ccc(CNC(=O)[C@@H]2C[C@@H](O)CN2C(=O)[C@@H](NC(=O)COCCCOCCCOc2cc(F)c([C@@H]3c4[nH]c5ccccc5c4C[C@@H](C)N3CC(C)(C)F)c(F)c2)C(C)(C)C)cc1` [Compound 5]?
A: PGR mRNA expression in tumour (% of vehicle) (PGR mRNA): 12.5811% and 15.4178% and 10.0087% and 25.9295% and 45.882%; effect on tumour growth ([1]; 30 mg/kg QD, CTC174 PDX): no significant effect on tumour growth; individual tumour volume relative to day 0 ([1]; 30mg/kg, day 0): 1; individual tumour volume relative to day 0 ([1]; 30mg/kg, day 3, listed as AZ'6421): 0.7122 and 1.194; individual tumour volume relative to day 0 ([1]; 30mg/kg, day 24, listed as AZ'6421): 0.687 and 1.553 and 0.9229 and 3.138 and 3.998 and 5.933 and 2.313 and 1.402; individual tumour volume relative to day 0 ([1]; 30mg/kg, day 28, listed as AZ'6421): 0.8313 and 2.512 and 0.8896 and 2.922 and 2.315 and 6.135 and 3.14 and 1.905; individual tumour volume relative to day 0 ([1]; 30mg/kg, day 31, listed as AZ'6421): 0.7668 and 3.025 and 1.034 and 3.595 and 3.598 and 7.563 and 4.273 and 1.656; individual tumour volume relative to day 0 ([1]; 30mg/kg, day 32, listed as AZ'6421): 0.5475 and 2.09 and 0.9038 and 4.599 and 4.337 and 8.487 and 4.5171 and 1.317; individual tumour volume relative to day 0 ([1]; 30mg/kg, day 35, listed as AZ'6421): 0.7044 and 2.34 and 1.039 and 4.934 and 5.34 and 5.3436 and 1.76; tumour growth inhibition ([1]; 100 mg/kg BID, CTC174 PDX): 86%; individual tumour volume relative to day 0 ([1]; 100mg/kg BID, day 0): 1; individual tumour volume relative to day 0 ([1]; 100mg/kg BID, day 3, listed as AZ'6421): 0.8229 and 1.103 and 0.6717 and 0.9409 and 1.283 and 1.22 and 0.8606; individual tumour volume relative to day 0 ([1]; 100mg/kg BID, day 24, listed as AZ'6421): 0.798 and 1.29 and 1.172 and 1.123 and 1.125 and 1.792 and 0.9657 and 0.7632; individual tumour volume relative to day 0 ([1]; 100mg/kg BID, day 28, listed as AZ'6421): 1.185 and 1.364 and 1.661 and 0.8768 and 1.158 and 1.79 and 0.955; individual tumour volume relative to day 0 ([1]; 100mg/kg BID, day 31, listed as AZ'6421): 1.384 and 1.261 and 1.388 and 0.978 and 1.011 and 2 and 1.056; individual tumour volume relative to day 0 ([1]; 100mg/kg BID, day 32, listed as AZ'6421): 1.118 and 1.021 and 1.453 and 0.5782 and 0.607 and 1.779 and 0.9427; individual tumour volume relative to day 0 ([1]; 100mg/kg BID, day 35, listed as AZ'6421): 0.7796 and 0.7051 and 1.086 and 0.6654 and 0.8654 and 1.332 and 0.777; major metabolic liability [2]: formation of a carboxylic acid metabolite 8
